Results: US20120101153A1, “ROCAGLAOL DERIVATIVES AS CARDIOPROTECTANT AGENTS AND AS ANTINEOPLASTIC AGENTS” (Universite De Strasbourg, priority 2008, published 2012)
Like-named read-outs stand apart in the source and are kept apart here.

Key:
[1] = system: KB (epidermoid carcinoma); experiment: MTS assay, inhibition of cell proliferation, KB; details: Homo sapiens, read-out: Cytotoxicity (IC50)
Protocol: The human cell lines KB (epidermoid carcinoma) and HepG2 (hepatocarcinoma) were obtained from ECACC (Salisbury, UK) and grown in D-MEM medium supplemented with 10% fetal calf serum, in the presence of penicilline, streptomycine and fungizone in 75 cm^2 flask under 5% CO2.
(§1) Cells were plated in 96-well tissue culture plates in 200 μl medium and cultured during 24 h before to be treated with compounds dissolved in DMSO (compound concentrations at a range of 0.5 nM to 10 μM) using a Biomek 2000 or 3000 (Beckman). Controls received the same volume of DMSO (1% final volume). After a 72 h exposure, MTS reagent (Promega) was added and incubated for 3 h at 37° C. The absorbance was then monitored at 490 nm and results were expressed as the value [1-(OD490 treated/OD490 control)×100] corresponding to the percentage of inhibition of cell proliferation.

[2] = system: HL60 (promyeocytic leukaemia); experiment: MTS assay, inhibition of cell proliferation, HL60
Protocol: (§2) The human cell lines HL60 (promyeocytic leukaemia), MDA435 (breast ductal carcinoma; ATCC reference HBT129) and MDA231 (breast adenocarcinoma; ATCC reference HBT26) were obtained from ATCC. […] SK-OV3 cells (or OV3, ATCC reference HTB77) were kindly provided by NCI (Frederick, Md.).
(§3) The cell lines HCT116, HCT15, MCF7, MDA435, MDA231, PC3, OV3, HL60R and HL60 were grown in RPMI medium, in particular supplemented with 10% fetal calf serum, in the presence of penicillin, streptomycin and fungizone in 75 cm^2 flask under 5% CO2. […] The medium was changed every 2-3 days.
as §1

[3] = system: HCT116 (colon adenocarcinoma); experiment: MTS assay, inhibition of cell proliferation, HCT116; details: Homo sapiens, HCT-116, read-out: Cytotoxicity (IC50)
Protocol: (§4) The human cell lines HCT116 (colon adenocarcinoma), PC3 (prostate adenocarcinoma) and HCT15 (colon adenocarcinoma) were obtained from ECACC (Wiltshire, UK).
(§5) The cell lines HCT116, HCT15, MCF7, MDA435, MDA231, PC3, OV3, HL60R and HL60 were grown in RPMI medium, in particular supplemented with 10% fetal calf serum, in the presence of penicillin, streptomycin and fungizone in 75 cm^2 flask under 5% CO2.
as §1

[4] = system: PC3 (prostate adenocarcinoma); experiment: MTS assay, cytotoxicity, PC3; details: Homo sapiens, read-out: Cytotoxicity (IC50)
Protocol: as §4, §5, §1

[5] = system: MDA435 (breast ductal carcinoma); experiment: MTS assay, cytotoxicity, MDA435; details: Homo sapiens, MDA435, read-out: Cytotoxicity (IC50)
Protocol: as §2, §3, §1

[6] = system: MDA231 (breast adenocarcinoma); experiment: MTS assay, cytotoxicity, MDA231; details: Homo sapiens, MDA-MB-231, read-out: Cytotoxicity (IC50)
Protocol: as §2, §3, §1

SK-OV3 cells (OV3) = experiment: MTS assay, cytotoxicity, OV3; details: Homo sapiens, SK-OV-3, read-out: Cytotoxicity (IC50)
Protocol: as §2, §3, §1

[7] = system: HL60R (resistant HL60 cells); experiment: MTS assay, cytotoxicity, HL60R; details: Homo sapiens, read-out: Cytotoxicity (IC50)
Protocol: as §5, §1

H9c2 cardiomyocytes = details: 10 or 100 nM; apoptosis induced by doxorubicin in H9c2 cells
Protocol: The medium was changed every 2-3 days.
H9c2 cells were plated for 24 h in 100 mm Petri dishes at 0,7×10^4 cells/cm^2. Next, the cells were washed and cultured for 12 h in glucose-free medium (Gibco, DMEM w-L-glutamine, w/o D-glucose, sodium pyruvate) supplemented with only 1% fetal calf serum. […] Cells were washed, and subsequently FACS analyses were performed.
Apoptosis was analysed by fluorescence-activated cell sorting analysis (FACS-Calibur, Becton-Dickinson Biosciences). 0,5×10^6 cells were harvested, washed with Annexin Binding Buffer (0,01 M HEPES, 0,14 M NaCl, 2,5 mM CaCl2) and labeled with annexin V (dilution 1:50) and propidium iodide (6,7 μg/ml). All assays were performed at least in triplicate, and the results were analyzed by BD Cell Quest Pro software (Becton-Dickinson Biosciences, Le Pont De Claix, France).

[8] = read-out: Cytotoxicity (IC50), HL60, MTS, Table 2
[9] = Homo sapiens, HL-60, read-out: Cytotoxicity (IC50)

| SMILES | IC50 [1] [nM] | IC50 [2, 8] [nM] | IC50 [3] [nM] | IC50 [4] [nM] | IC50 [2, 9] [nM] | IC50 [5] [nM] | IC50 [6] [nM] | IC50 (SK-OV3 cells (OV3)) [nM] | IC50 [7] [nM] | Activity for cytotoxicity and cardioprotection (FIG. 13) (H9c2 cardiomyocytes) |
| --- | --- | --- | --- | --- | --- | --- | --- | --- | --- | --- |
| COc1ccc([C@@]23Oc4cc(OC)cc(OC)c4[C@]2(O)[C@H](O)C[C@H]3c2cccc(F)c2)cc1 (racemic) [FL15, 3a-(4-methoxyphenyl)-6,8-dimethoxy-3-(3-fluorophenyl)-1,2,3,3a-tetrahydro-cyclopenta[b]benzofuran-1,8b(1H)-diol] | 60 |  |  |  |  |  |  |  |  |  |
| COc1cc(OC)c2c(c1)OC1(c3ccc(Br)cc3)C(c3ccccc3)CC(NC=O)C21O (stereo not drawn) [FL22, 3a-(4-Bromophenyl)-6,8-dimethoxy-8b-hydroxy-3-phenyl-1,2,3,3a-tetrahydro-cyclopenta[b]benzofuran-1,8b(1H)-formamide] |  | 44 |  |  |  |  |  |  |  |  |
| COc1cc(OC)c2c(c1)OC1(c3ccc(Br)cc3)C(c3ccccc3)CC(NC=O)C21O (stereo not drawn) [FL23, 3a-(4-Bromophenyl)-6,8-dimethoxy-8b-hydroxy-3-phenyl-1,2,3,3a-tetrahydro-cyclopenta[b]benzofuran-1,8b(1H)-formamide] |  | 2 |  |  |  |  |  |  |  |  |
| COc1cc(OC)c2c(c1)OC1(c3ccc(Br)cc3)C(c3ccccc3)CC(NS(C)(=O)=O)C21O (stereo not drawn) [FL25, 3a-(4-Bromophenyl)-6,8-dimethoxy-8b-hydroxy-3-phenyl-1,2,3,3a-tetrahydro-cyclopenta[b]benzofuran-1,8b(1H)-methanesulfonamide] |  | 16 |  |  |  |  |  |  |  |  |
| COC(=O)[C@H]1[C@@H](O)[C@@]2(O)c3ccc(OC)cc3O[C@@]2(c2ccc(Br)cc2)[C@@H]1c1ccccc1 (racemic) [FL5, Methyl 3a-(4-bromophenyl)-1,8b-dihydroxy-8-methoxy-1-oxo-3-phenyl-2,3-3a,8b-tetrahydro-cyclopenta[b]benzofuran-2-carboxylate] | 165 |  | 96 | 174 | 65 | 65 | 27 | 101 | 44 |  |
| CNC(=O)[C@H]1[C@@H](O)[C@@]2(O)c3c(OC)cc(OC)cc3O[C@@]2(c2ccc(Br)cc2)[C@@H]1c1ccccc1 (racemic) [FL13, 3a-(4-Bromophenyl)-1,8b-dihydroxy-6,8-dimethoxy-N-methyl-1-oxo-3-phenyl-2,3-3a,8b-tetrahydro-cyclopenta[b]benzofuran-2-carboxamide] | 4 |  | 3.8 | 3.3 | 2 | 2.6 | 1.9 | 3.8 | 16 |  |
| COc1cc(OC)c2c(c1)O[C@@]1(c3ccc(Br)cc3)[C@H](c3ccccc3)[C@@H](C(N)=O)[C@@H](O)[C@@]21O (racemic) [FL14, 3a-(4-Bromophenyl)-1,8b-dihydroxy-6,8-dimethoxy-1-oxo-3-phenyl-2,3-3a,8b-tetrahydro-cyclopenta[b]benzofuran-2-carboxamide] | 2 |  | 1.8 | 3.7 | 1 | 1.5 | 1 | 2.1 | 18 |  |
| COc1cc(OC)c2c(c1)OC1(c3ccc(Br)cc3)C(c3ccccc3)CC(NS(C)(=O)=O)C21O (stereo not drawn) [FL24, 3a-(4-Bromophenyl)-6,8-dimethoxy-8b-hydroxy-3-phenyl-1,2,3,3a-tetrahydro-cyclopenta[b]benzofuran-1,8b(1H)-methanesulfonamide] |  | 580 |  |  |  |  |  |  |  |  |
| COC(=O)[C@H]1[C@@H](O)[C@@]2(O)c3ccc(OCCCO)cc3O[C@@]2(c2ccc(OC)cc2)[C@@H]1c1ccccc1 (racemic) [FL11] | 1710 |  | 1420 | 2520 | 1120 | 1110 | 1070 | 1460 | 1280 | no or weak such activity |
| COc1cc(OC)c2c(c1)O[C@@]1(c3ccc(Br)cc3)[C@H](c3ccccc3)C[C@@H](OC(C)=O)[C@@]21O (racemic) [FL20, 3a-(4-Bromophenyl)-6,8-dimethoxy-3-phenyl-1,2,3,3a-tetrahydro-cyclopenta[b]benzofuran-1,8b(1H)-diol 1-acetate] |  |  |  |  | 40 |  |  |  |  |  |
| COc1cc(OC)c2c(c1)O[C@@]1(c3ccc(Br)cc3)[C@H](c3ccccc3)[C@@H](C(=O)N(C)C)[C@@H](O)[C@@]21O (racemic) [FL12, 3a-(4-Bromophenyl)-1,8b-dihydroxy-6,8-dimethoxy-N,N-dimethyl-1-oxo-3-phenyl-2,3-3a,8b-tetrahydro-cyclopenta[b]benzofuran-2-carboxamide] | 7 |  | 5.9 | 7.2 | 4 | 3.2 | 2.7 | 6.7 | 12 |  |
| CC[C@]1(O)C[C@@H]2CN(CCc3c([nH]c4ccccc34)[C@@](C(=O)OC)(c3cc4c(cc3OC)N(C)[C@H]3[C@@](O)(C(=O)OC)[C@H](OC(C)=O)[C@]5(CC)C=CCN6CC[C@]43[C@@H]65)C2)C1 [Vinblastin, vinblastine, reference compound] | 0.8 |  | 1.42 | 5.5 | 1.11 | 1.24 | 0.63 | 2.7 | > 100 |  |
| COc1cc(OC)c2c(c1)O[C@@]1(c3ccc(Br)cc3)[C@H](c3cccc(F)c3)[C@@H](C(N)=O)[C@@H](O)[C@@]21O (racemic) [FL18, 3a-(4-Bromophenyl)-1,8b-dihydroxy-6,8-dimethoxy-1-oxo-3-(3-fluorophenyl)-2,3-3a,8b-tetrahydro-cyclopenta[b]benzofuran-2-carboxamide] | 14 |  |  |  |  |  |  |  |  |  |
| COC(=O)[C@H]1[C@@H](O)[C@@]2(O)c3c(OC)cc(OC)cc3O[C@@]2(c2ccc(Br)cc2)[C@@H]1c1ccccc1 (racemic) [FL10, Methyl 3a-(4-bromophenyl)-1,8b-dihydroxy-6,8-dmethoxy-1-oxo-3-phenyl-2,3-3a,8b-tetrahydro-cyclopenta[b]benzofuran-2-Carboxylate] | 24 |  | 18 | 29 | 14 | 15 | 8.7 | 21 | 14 |  |
| COc1cc(OC)c2c(c1)O[C@@]1(c3ccc(Br)cc3)[C@H](c3ccccc3)C[C@@H](OC=O)[C@@]21O (racemic) [FL19, 3a-(4-Bromophenyl)-6,8-dimethoxy-3-phenyl-1,2,3,3a-tetrahydro-cyclopenta[b]benzofuran-1,8b(1H)-diol 1-formate] |  |  |  |  | 7 |  |  |  |  |  |
| CC(=O)O[C@@]12CO[C@@H]1C[C@H](O)[C@@]1(C)C(=O)[C@H](O)C3=C(C)[C@@H](OC(=O)[C@H](O)[C@@H](NC(=O)OC(C)(C)C)c4ccccc4)C[C@@](O)([C@@H](OC(=O)c4ccccc4)[C@H]21)C3(C)C [Taxotere, reference compound] | 0.17 |  | 0.52 | 1.4 | 0.5 | 0.25 | 0.018 | 0.51 | 531 |  |
| COC(=O)[C@H]1[C@@H](O)[C@@]2(O)c3c(OC)cc(OC)cc3O[C@@]2(c2ccc(OC)cc2)[C@@H]1c1cccc(F)c1 (racemic) [FL16, Methyl 3a-(4-methoxyphenyl)-1,8b-dihydroxy-6,8-dimethoxy-1-oxo-3-(3-fluorophenyl)-2,3-3a,8b-tetrahydro-cyclopenta[b]benzofuran-2-carboxylate] | 28 |  |  |  |  |  |  |  |  |  |
| COc1ccc2c(c1)O[C@@]1(c3ccc(Br)cc3)[C@H](c3ccccc3)C[C@@H](O)[C@@]21O (racemic) [FL6, 3a-(4-Bromophenyl)-8-methoxy-3-phenyl-1,2,3,3a-tetrahydro-cyclopenta[b]benzofuran-1,8b(1H)-diol] | 255 |  | 108 | 224 | 115 | 205 | 48 | 251 | 67 | no or weak such activity |
| CCC(=O)O[C@@H]1C[C@@H](c2ccccc2)[C@]2(c3ccc(Br)cc3)Oc3cc(OC)cc(OC)c3[C@]12O (racemic) [FL21, 3a-(4-Bromophenyl)-6,8-dimethoxy-3-phenyl-1,2,3,3a-tetrahydro-cyclopenta[b]benzofuran-1,8b(1H)-diol 1-propionate] |  |  |  |  | 50 |  |  |  |  |  |
